Source: patent publication US20250160350A1, “BIOACTIVE MOLECULES IN YOGURT” (Phytoquest Limited, priority 2022, published 2025)
Counter-ions that a name gives are not always drawn. Like-named read-outs stand apart in the source and are kept apart here. Values belong to the compound of their own block, whether it stands above or below them.

What was measured:
[1] = molecular target: T1, human recombinant β-glucocerebrosidase (Cerezyme) (Homo sapiens, UniProt P04062, R534H); assay: β-glucocerebrosidase assay (Cerezyme/imiglucerase, PNP β-glucopyranoside, pH 5.9); assay type: biochemical; details: for inhibition at 5000 µg/mL / % inhibition Cerezyme (β-glucocerebrosidase): Conc 5 mg/ml; for inhibition at 10000 µg/mL: Conc 10 mg/ml; for effect on β-glucocerebrosidase activity, in words: in vitro; for % inhibition glucocerebrosidase (GC) Genzyme: 0.8 mM
T1 construct: purchased Genzyme, Europe
T1 sequence (P04062 40-536 R534H): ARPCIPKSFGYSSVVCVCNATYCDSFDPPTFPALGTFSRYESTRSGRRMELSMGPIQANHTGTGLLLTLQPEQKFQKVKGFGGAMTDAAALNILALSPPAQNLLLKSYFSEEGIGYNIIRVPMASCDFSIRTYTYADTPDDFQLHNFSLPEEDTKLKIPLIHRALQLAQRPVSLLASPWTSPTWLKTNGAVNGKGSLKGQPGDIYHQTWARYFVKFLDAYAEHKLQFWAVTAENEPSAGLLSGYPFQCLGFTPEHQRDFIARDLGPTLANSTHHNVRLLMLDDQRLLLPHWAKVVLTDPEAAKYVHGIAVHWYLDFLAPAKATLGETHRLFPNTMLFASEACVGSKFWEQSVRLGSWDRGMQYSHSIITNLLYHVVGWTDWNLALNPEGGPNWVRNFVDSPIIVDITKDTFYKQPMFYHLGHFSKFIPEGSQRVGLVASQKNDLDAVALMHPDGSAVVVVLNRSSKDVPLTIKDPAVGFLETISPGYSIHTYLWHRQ
Experimental: An exemplary assay is-uses human recombinant imiglucerase (obtained from Genzyme, Europe) and is conducted at 27° C. in 0.1 M citric acid/0.2 M disodium hydrogen phosphate buffer at pH 5.9. The incubation mixture consists of 10 μL of enzyme solution, 10 μL of aqueous solution of test material (e.g., yogurt, yogurt extract or isolated cyclic guanidine compound) at the required concentration and 50 μL of 5 mM para-nitrophenyl (PNP) B glucopyranoside (Sigma-Aldrich) made up in buffer at pH 5.9. The reactions are stopped by addition of 70 μL 0.4 M glycine (pH 10.4) during the exponential phase of the reaction, which is previously determined using uninhibited assays in which water replaces inhibitor. Final absorbances were read at 405 nm using a Versamax microplate reader (Molecular Devices). Assays are carried out in triplicate, and the values given are means of the three replicates per assay. A negative value indicates enzyme activation.
Glycosidase assays. Most enzymes and para-nitrophenyl substrates were purchased from Sigma with the exception of human recombinant β-glucocerebrosidase (Cerezyme) obtained from Genzyme, Europe. Pure iminosugars which inhibit β-glucosidases (DMDP and calystegine B2) were used as controls. Yogurt samples were tested at 1 mg/ml. Enzymes were assayed at 27° C. in 0.1 M citric acid/0.2 M disodium hydrogen phosphate buffers at the optimum pH for the enzyme (pH 5.9 for Cerezyme). The incubation mixture consisted of 10 μL enzyme solution, 10 μL of 1 mg/mL aqueous inhibitor solution and 50 μL of the appropriate 5 mM para-nitrophenyl substrate made up in buffer at the optimum pH for the enzyme. Cerezyme was assayed against para-nitrophenyl (PNP) β-glucopyranoside. […] Final absorbances were read at 405 nm using a Versamax microplate reader (Molecular Devices). Assays were performed in triplicate and the mean percentage inhibitions used. A negative value indicates enzyme activation.
Glycosidase Assays. β-glucocerebrosidase enzyme (Human recombinant imiglucerase, obtained from Genzyme, Europe) were carried at 27° C. in 0.1 M citric acid/0.2 M disodium hydrogen phosphate buffer at pH 5.9. The incubation mixture consisted of 10 μL of enzyme solution, 10 μL of aqueous solution of extract or compound at the required concentration and 50 μL of 5 mM para-nitrophenyl (PNP) β-glucopyranoside (Sigma-Aldrich) made up in buffer at pH 5.9. […] Final absorbances were read at 405 nm using a Versamax microplate reader (Molecular Devices). Assays were carried out in triplicate and the values given are means. Results are shown as % inhibition where a negative value indicates enzyme activation.
β-glucocerebrosidase enzyme (Human recombinant imiglucerase, obtained from Genzyme, Europe) were carried at 27° C. in 0.1 M citric acid/0.2 M disodium hydrogen phosphate buffer at pH 5.9. […] Final absorbances were read at 405 nm using a Versamax microplate reader (Molecular Devices). Assays were carried out in triplicate, and the values given are means of the three replicates per assay. A negative value indicates enzyme activation.

GCase [2] = details: literature (Ambrosi et al. 2015); cited from earlier work
GCase [3] = details: PD patients with and without GBA1 mutation; cited from earlier work
α-D-glucosidase Yeast = assay: Glycosidase assay, α-D-glucosidase Yeast; assay type: biochemical; details: negative value = activation
Experimental: (§1) Glycosidase assays. Most enzymes and para-nitrophenyl substrates were purchased from Sigma with the exception of human recombinant β-glucocerebrosidase (Cerezyme) obtained from Genzyme, Europe. Pure iminosugars which inhibit β-glucosidases (DMDP and calystegine B2) were used as controls. Yogurt samples were tested at 1 mg/ml. Enzymes were assayed at 27° C. in 0.1 M citric acid/0.2 M disodium hydrogen phosphate buffers at the optimum pH for the enzyme (pH 5.9 for Cerezyme). The incubation mixture consisted of 10 μL enzyme solution, 10 μL of 1 mg/mL aqueous inhibitor solution and 50 μL of the appropriate 5 mM para-nitrophenyl substrate made up in buffer at the optimum pH for the enzyme. Cerezyme was assayed against para-nitrophenyl (PNP) β-glucopyranoside. The reactions were stopped by addition of 70 μL 0.4 M glycine (pH 10.4) during the exponential phase of the reaction, which had been determined at the beginning using uninhibited assays in which water replaced inhibitor. Final absorbances were read at 405 nm using a Versamax microplate reader (Molecular Devices). Assays were performed in triplicate and the mean percentage inhibitions used. A negative value indicates enzyme activation.

α-D-glucosidase Bacillus = assay: Glycosidase assay, α-D-glucosidase Bacillus; assay type: biochemical; details: 0.8 mM; negative value = activation
Experimental: as §1

β-D-glucosidase almond = assay: Glycosidase assay, β-D-glucosidase almond; assay type: biochemical; details: negative value = activation
Experimental: as §1

[4] = molecular target: T2, α-D-galactosidase Green coffee (Coffea arabica, UniProt Q42656); assay: Glycosidase assay, α-D-galactosidase Green coffee; assay type: biochemical; details: 0.8 mM; negative value = activation
T2 construct: purchased Sigma
Experimental: as §1

[5] = test system: β-D-galactosidase bovine liver; assay: Glycosidase assay, β-D-galactosidase bovine liver; assay type: biochemical; details: 0.8 mM; negative value = activation
Experimental: as §1

[6] = molecular target: T3, α-D-mannosidase Jack bean (Canavalia ensiformis, UniProt C0HJB3); assay: Glycosidase assay, α-D-mannosidase Jack bean; assay type: biochemical; details: 0.8 mM; negative value = activation
T3 construct: purchased Sigma
T3 sequence (C0HJB3 1-981): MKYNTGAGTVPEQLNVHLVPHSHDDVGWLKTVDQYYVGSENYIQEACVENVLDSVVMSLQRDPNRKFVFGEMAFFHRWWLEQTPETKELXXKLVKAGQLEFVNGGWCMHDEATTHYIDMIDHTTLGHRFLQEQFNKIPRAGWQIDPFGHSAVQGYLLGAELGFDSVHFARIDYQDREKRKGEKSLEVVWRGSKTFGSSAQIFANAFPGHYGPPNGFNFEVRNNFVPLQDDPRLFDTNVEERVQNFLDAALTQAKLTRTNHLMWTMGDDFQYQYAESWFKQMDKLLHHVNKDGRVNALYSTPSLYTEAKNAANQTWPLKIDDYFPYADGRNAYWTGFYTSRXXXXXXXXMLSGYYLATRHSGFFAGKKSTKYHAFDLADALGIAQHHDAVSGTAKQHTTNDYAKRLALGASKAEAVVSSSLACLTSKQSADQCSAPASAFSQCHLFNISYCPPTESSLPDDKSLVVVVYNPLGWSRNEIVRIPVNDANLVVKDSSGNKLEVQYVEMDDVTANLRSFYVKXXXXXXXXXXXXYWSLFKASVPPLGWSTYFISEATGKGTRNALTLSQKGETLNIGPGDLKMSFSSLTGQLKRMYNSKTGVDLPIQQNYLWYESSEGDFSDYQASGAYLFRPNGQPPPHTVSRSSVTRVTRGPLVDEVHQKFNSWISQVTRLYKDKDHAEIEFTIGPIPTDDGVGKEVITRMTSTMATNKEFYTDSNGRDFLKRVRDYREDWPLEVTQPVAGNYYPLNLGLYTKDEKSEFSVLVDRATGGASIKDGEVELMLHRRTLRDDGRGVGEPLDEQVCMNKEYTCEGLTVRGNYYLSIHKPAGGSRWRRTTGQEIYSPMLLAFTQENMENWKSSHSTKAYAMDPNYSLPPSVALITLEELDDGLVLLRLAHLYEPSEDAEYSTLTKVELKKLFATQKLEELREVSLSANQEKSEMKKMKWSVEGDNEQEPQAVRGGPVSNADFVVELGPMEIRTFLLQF
Experimental: as §1

β-D-mannosidase C. fimi = assay: Glycosidase assay, β-D-mannosidase C. fimi; assay type: biochemical; details: 0.8 mM; negative value = activation
Experimental: as §1

[7] = test system: N-acetyl-β-D gluc Bovine kidney; assay: Glycosidase assay, N-acetyl-β-D gluc Bovine kidney; assay type: biochemical; details: negative value = activation; for % inhibition N-acetyl-β-D gluc Bovine kidney: 0.8 mM
Experimental: as §1

[8] = test system: N-acetyl-β-D-gluc Jack bean; assay: Glycosidase assay, N-acetyl-β-D-gluc Jack bean; assay type: biochemical; details: 0.8 mM; negative value = activation
Experimental: as §1

[9] = test system: α-D-glucosidase rat intestine; assay: Glycosidase assay, α-D-glucosidase rat intestine; assay type: biochemical; details: 0.8 mM; negative value = activation
Experimental: as §1

GCase [10] = details: in vitro and in mice, tissue-specific (Sun et al. 2012); cited from earlier work
[11] = pH 5.9, negative value = activation

T2 sequence (Q42656 16-378): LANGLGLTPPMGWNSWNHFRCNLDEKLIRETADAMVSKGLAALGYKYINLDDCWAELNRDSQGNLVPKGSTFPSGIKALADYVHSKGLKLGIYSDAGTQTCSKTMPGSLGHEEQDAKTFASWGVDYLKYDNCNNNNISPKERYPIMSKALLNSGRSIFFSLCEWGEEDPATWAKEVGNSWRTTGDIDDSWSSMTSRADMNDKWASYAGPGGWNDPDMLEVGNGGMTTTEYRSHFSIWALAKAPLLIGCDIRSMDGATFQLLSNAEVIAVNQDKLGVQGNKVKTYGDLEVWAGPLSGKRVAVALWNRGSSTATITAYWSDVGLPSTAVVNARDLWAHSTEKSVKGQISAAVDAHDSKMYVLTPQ

Structure (SMILES): Nc1c(Br)cc(Br)cc1CN[C@H]1CC[C@H](O)CC1 [Ambroxol hydrochloride]
- GCase activity (GCase [2]): enhance GCase activity
- α-syn clearance (GCase [2]): increase α-syn clearance
- GCase activity in patients (GCase [3]): increased the GCase activity

Structure (SMILES): O=c1c(O)c(-c2ccc(O)c(O)c2)oc2cc(O)cc(O)c12 [quercetin]
- inhibition at 5000 µg/mL [1, 11]: 39.4%
- effect on β-glucocerebrosidase activity, in words [1]: inhibited the enzyme

Structure (SMILES): Cn1cc(C(=O)O)ccc1=O [6-OH-trigonelline]
- % inhibition Cerezyme (β-glucocerebrosidase) [1, 11]: 8.6%

Structure (SMILES): O=C(O)c1ccc(=O)[nH]c1 [6-OH-nicotinic acid]
- % inhibition Cerezyme (β-glucocerebrosidase) [1, 11]: −1.4%

Structure (SMILES): O[C@@H]1[C@@H](O)[C@H](O)[C@]2(O)CC[C@H]1N2 [Calystegine B2]
- % inhibition α-D-glucosidase Yeast (α-D-glucosidase Yeast; 0.8 mM): 18%
- % inhibition α-D-glucosidase Bacillus (α-D-glucosidase Bacillus): −5%
- % inhibition β-D-glucosidase almond (β-D-glucosidase almond; 0.8 mM): 96%
- % inhibition α-D-galactosidase Green coffee [4]: 99%
- % inhibition β-D-galactosidase bovine liver [5]: 44%
- % inhibition glucocerebrosidase (GC) Genzyme [1, 11]: 100%
- % inhibition α-D-mannosidase Jack bean [6]: 8%
- % inhibition β-D-mannosidase C. fimi (β-D-mannosidase C. fimi): −5%
- % inhibition N-acetyl-β-D gluc Bovine kidney [7]: 0%
- % inhibition N-acetyl-β-D-gluc Jack bean [8]: 0%
- % inhibition α-D-glucosidase rat intestine [9]: 22%

Structure (SMILES): OC[C@H]1N[C@H](CO)[C@@H](O)[C@@H]1O [DMDP]
- % inhibition α-D-glucosidase Yeast (α-D-glucosidase Yeast; 0.8 mM): 100%
- % inhibition α-D-glucosidase Bacillus (α-D-glucosidase Bacillus): 93%
- % inhibition β-D-glucosidase almond (β-D-glucosidase almond; 0.8 mM): 97%
- % inhibition α-D-galactosidase Green coffee [4]: 7%
- % inhibition β-D-galactosidase bovine liver [5]: 99%
- % inhibition glucocerebrosidase (GC) Genzyme [1, 11]: 44%
- % inhibition α-D-mannosidase Jack bean [6]: 3%
- % inhibition β-D-mannosidase C. fimi (β-D-mannosidase C. fimi): 93%
- % inhibition N-acetyl-β-D gluc Bovine kidney [7]: −7%
- % inhibition N-acetyl-β-D-gluc Jack bean [8]: −7%
- % inhibition α-D-glucosidase rat intestine [9]: 77%

Structure (SMILES): CN1C(=N)NC[C@H]1C(=O)O [Compound 1, (S)-2-imino-3-methylimidazolidine-4-carboxylic acid]
- % inhibition α-D-glucosidase Yeast (α-D-glucosidase Yeast; 8 mM): 44%
- % inhibition β-D-glucosidase almond (β-D-glucosidase almond; 8 mM): 20%
- effect on β-glucocerebrosidase activity, in words [1]: strong promotion equalling that of the yogurt purified compound
- effect on β-glucocerebrosidase activity, in words ([1]; listed as (S)-2-imino-3-methylimidazolidine-4-carboxylic acid): effective at promoting the enzyme activity in vitro
- % inhibition N-acetyl-β-D-gluc Bovine kidney ([7]; 8 mM): 34%

Structure (SMILES): OC[C@H]1CNC[C@@H](O)[C@@H]1O [isofagomine]
- GCase activity (GCase [10]): increase GCase activity in vitro and in mice

Further lines, with some results ahead:

- inhibition at 5000 µg/mL [1, 11]: 4.5%
Structure (SMILES): O=c1cc[nH]c(=O)[nH]1 [uracil]

- inhibition at 10000 µg/mL [1, 11]: -1.6%
Structure (SMILES): Nc1cc[nH]c(=O)n1 [cytosine]

- inhibition at 1000 µg/mL ([1]; Conc 1 mg/ml, pH 5.9, negative value = activation): 3.1%
- inhibition at 5000 µg/mL [1, 11]: -12.6%
Structure (SMILES): C[n+]1cccc(C(=O)[O-])c1 [trigonelline]

- inhibition at 5000 µg/mL [1, 11]: -12.7%
Structure (SMILES): O=C(O)c1cccnc1 [nicotinic acid]

- inhibition at 5000 µg/mL [1, 11]: 57.1%
- effect on β-glucocerebrosidase activity, in words [1]: inhibited the enzyme
Structure (SMILES): O=C(/C=C/c1ccc(O)c(O)c1)O[C@@H]1C[C@](O)(C(=O)O)C[C@@H](O)[C@H]1O [chlorogenic acid]

- inhibition at 5000 µg/mL [1, 11]: -1.8%
Structure (SMILES): O=C(O)/C=C/c1ccc(O)c(O)c1 [caffeic acid]

- inhibition at 5000 µg/mL [1, 11]: -11.3%
Structure (SMILES): NC(=O)c1cccnc1 [nicotinamide]

- inhibition at 10000 µg/mL [1, 11]: -22%
Structure (SMILES): Nc1ncnc2nc[nH]c12 [adenine]
- effect on β-glucocerebrosidase activity, in words [1]: some promotion activity but weaker than that seen with the yogurts

- inhibition at 10000 µg/mL [1, 11]: 0.1%
Structure (SMILES): C[N+](C)(C)CC(=O)O [betaine]
